Source: US7534766B2, “Glucuronide metabolites and epimers thereof of tigecycline” (Wyeth, priority 2004, dated 2009)

What was measured:
[1] = Tigecycline metabolites identified in CD-1 mouse serum and urine and rabbit serum samples (LC/MS); format: in vivo; settings: in vivo, iv
Method: The column temperature was 25° C. The flow rate was 0.2 mL/min. […] Gradient 1 was used for metabolite identification (qualitative analysis).
LC/MS analysis was conducted on extracts of serum and from CD-1 mice and rabbits, and on urine from CD-1 mice. The mass spectral data for tigecycline and its metabolites are discussed below.

[2] = following multiple administrations of tigecycline; cited from earlier work
[3] = LC/MS detection of tigecycline metabolites in CD-1 mouse serum and urine after intravenous tigecycline; settings: mouse, in vivo, iv, 5 mg/kg
Method: Fifteen male CD-1 mice, with an average weight of 31.3 g at the time of dosing, were used. Animals were given food and water ad libitum. Mice in the 0.5 and 2 hour blood collection groups were housed in standard cages, while those in the 4 hour blood collection group were housed in metabolism cages for the collection of urine. Mice were dosed by the Bioresources Department at Wyeth Research, Collegeville, Pa.
For mice and rabbits, the intravenous dosing solutions was prepared by dissolving 50 mg of tigecycline in 5.0 mL of 0.9% sterile saline solution to make a working stock solution. The working stock solution was diluted with 0.9% sterile saline solution to 0.5 mg/mL for mice and 4 mg/mL for rabbits. The mouse dose (5 mg/kg, 10 mL/kg) was administered as a bolus injection via the tail vein. The rabbit dose (4 mg/kg, 1 mL/kg) was administered as a bolus injection via the marginal vein of the ear.
For mice (n=5/time point), blood (approximately 0.7 mL) was collected by cardiac puncture at 0.5, 2 and 4 hours following administration of tigecycline. For rabbits, blood (approximately 7 mL) was collected via the ear vein at 0.5, 2 and 6 hours following the tigecycline dose. Serum was separated following clot formation at room temperature and centrifugation for 15 minutes at 4° C. and 3000 rpm. The serum was transferred to a fresh tube and was stored at approximately −70° C. until analysis as described below under “Serum Sample Preparation for LC/MS Analysis. In addition, urine was collected from mice in the 4 hour blood collection group and was stored at approximately −70° C. until analysis, as described below under “Urine Sample Preparation for LC/MS Analysis.”
Mouse urine was thawed and an aliquot (1 mL) transferred to a fresh tube. The sample was centrifuged at 14,000 rpm and room temperature for 10 minutes using a Model 5415C Eppendorf centrifuge (Brinkmann Instruments, Westbury, N.Y.) to remove any particulates. The sample was then transferred to a fresh tube and was analyzed by LC/MS, as described below under “Liquid Chromatography/Mass Spectrometry Analysis.”.
Mouse and rabbit serum samples were pooled at each collection time and analyzed for tigecycline, its epimer, tigecycline glucuronide (M7 and its epimer M6), 9-aminominocycline (M3) and N-acetyl-9-aminominocycline (M9 and its epimer M8). Aliquots of serum (500 μL) were transferred to new tubes and deuterated tigecycline (30 ng/mL final concentration) was added as an internal standard (quantitative analysis only). EDTA (40 μL of 0.5 M EDTA) was added to each sample and the samples vortex mixed. Acetonitrile (500 μL) was added to each sample, samples were vortex mixed and denatured protein separated by centrifugation at 14,000 rpm and room temperature for 10 minutes using a Model 5415C Eppendorf centrifuge (Brinkmann Instruments). The supernatant was transferred to a fresh tube and the solvent evaporated under a stream of nitrogen using a Turbovap Model LV evaporator (Caliper Life Sciences, Hopkinton, Mass.).
The HPLC system used for mass spectrometric analysis was a Waters Alliance Model 2695 HPLC system (Waters Corp., Milford, Mass.). It was equipped with a built-in autosampler and a Model 996 diode array UV detector. The UV detector was set to monitor 210-400 nm. Separations for metabolite characterization were accomplished on a Phenomenex Luna C18(2) column (150×2.1 mm, 5 μm) (Phenomenex, Torrance, Calif.) equipped with a Keystone Uniguard C18 guard column (10×2.1 mm) (Thermo Electron Corp., Bellefonte, Pa.). The column temperature was 25° C. The flow rate was 0.2 mL/min. Mobile phase A was 10 mM ammonium acetate in water and mobile phase B was acetonitrile.

CC(=O)Nc1cc(N(C)C)c2c(c1O)C(=O)C1=C(O)C3(O)C(=O)C(C(N)=O)=C(O)C(N(C)C)C3CC1C2 (stereo not drawn) [Metabolite M9, N-acetyl-9-aminominocycline]
Species and matrix in which identified [1]: R-S
concentrations previously reported in human serum [2]: 3 to 15 ng/mL
observed in mouse urine by LC/MS [3]: No M9 was observed
